From ChEMBL document CHEMBL1130052, “Substituted [(4-phenylpiperazinyl)-methyl]benzamides: selective dopamine D4 agonists” (J Med Chem, 1997)

The molecules below were run against T1, D(4) dopamine receptor (Homo sapiens, UniProt P21917) (assay: biochemical).
T1 sequence (P21917 whole entry): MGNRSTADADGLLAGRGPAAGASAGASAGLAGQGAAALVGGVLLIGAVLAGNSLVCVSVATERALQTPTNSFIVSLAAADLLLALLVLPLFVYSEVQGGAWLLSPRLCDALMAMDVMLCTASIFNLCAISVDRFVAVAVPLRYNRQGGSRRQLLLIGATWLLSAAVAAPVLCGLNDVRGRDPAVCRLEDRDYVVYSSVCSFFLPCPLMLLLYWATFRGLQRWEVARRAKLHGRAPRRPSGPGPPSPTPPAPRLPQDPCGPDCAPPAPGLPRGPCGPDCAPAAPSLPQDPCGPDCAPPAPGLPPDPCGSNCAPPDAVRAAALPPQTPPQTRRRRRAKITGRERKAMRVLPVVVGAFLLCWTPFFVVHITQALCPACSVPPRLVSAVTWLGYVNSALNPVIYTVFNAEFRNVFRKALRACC
Description: Binding affinity for human Dopamine receptor D4 expressed in CHO K1 transfected cells using [3H]spiperone as radioligand

`N#Cc1ccccc1N1CCN(CNC(=O)c2cccc(Cl)c2)CC1` and `O=C(NCN1CCN(c2ccccc2Cl)CC1)c1cccc(Cl)c1` are within 1.5-fold of each other in Ki: 34 nM for the first, 41 nM for the second.

`N#Cc1ccccc1N1CCN(CNC(=O)c2ccccc2)CC1` and `O=C(NCN1CCN(c2ccccc2Cl)CC1)c1ccccc1` are within 1.5-fold of each other in Ki: 27 nM for the first, 32 nM for the second.

Compared with `Cc1cccc(C(=O)NCN2CCN(c3ccccc3Cl)CC2)c1`, `COc1ccccc1N1CCN(CNC(=O)c2cccc(C)c2)CC1` is 4-fold lower in Ki: 27 nM for the first, 6.7 nM for the second.

Compared with `Cc1ccc(C(=O)NCN2CCN(c3ccccc3Cl)CC2)cc1`, `O=C(NCN1CCN(c2ccccc2Cl)CC1)c1ccc(Cl)cc1` is 2.3-fold lower in Ki: 12 nM for the first, 5.3 nM for the second. The second binds more tightly here.

`N#Cc1ccccc1N1CCN(CNC(=O)c2ccc(Cl)cc2)CC1` and `Cc1ccc(C(=O)NCN2CCN(c3ccccc3C#N)CC2)cc1` are within 1.5-fold of each other in Ki: 5.5 nM for the first, 6.5 nM for the second.

First: COc1ccccc1N1CCN(CNC(=O)c2ccc(C)cc2)CC1
Second: COc1ccccc1N1CCN(CNC(=O)c2ccc(Cl)cc2)CC1
The Ki of the first is 1.8-fold lower: 7.7 nM for the first, 14 nM for the second.

`COc1ccccc1N1CCN(CNC(=O)c2cccc(Cl)c2)CC1` and `COc1ccccc1N1CCN(CNC(=O)c2ccccc2)CC1` are within 1.5-fold of each other in Ki: 15 nM for the first, 22 nM for the second.

Each molecule was assayed against T2, 5-hydroxytryptamine receptor 1A (Mus musculus, UniProt Q64264) (assay: Binding affinity at 5-hydroxytryptamine 1A receptor).
T2 sequence (Q64264 whole entry): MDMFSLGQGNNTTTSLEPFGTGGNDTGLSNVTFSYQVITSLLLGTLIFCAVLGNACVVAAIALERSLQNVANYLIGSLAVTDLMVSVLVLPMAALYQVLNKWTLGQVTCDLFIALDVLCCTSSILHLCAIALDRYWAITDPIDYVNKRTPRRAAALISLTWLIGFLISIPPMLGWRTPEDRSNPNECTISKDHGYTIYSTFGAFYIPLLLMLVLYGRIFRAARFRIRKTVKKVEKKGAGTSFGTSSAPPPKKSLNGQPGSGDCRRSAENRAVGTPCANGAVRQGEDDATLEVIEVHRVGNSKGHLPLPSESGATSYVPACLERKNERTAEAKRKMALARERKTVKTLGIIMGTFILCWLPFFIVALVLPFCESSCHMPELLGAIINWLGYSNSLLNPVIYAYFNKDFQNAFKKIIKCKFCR

Work on `Cc1cccc(C(=O)NCN2CCN(c3ccccc3C#N)CC2)c1` [PD-168,077] yielded a Ki of 385 nM.

These molecules were tested against D(2) dopamine receptor (Homo sapiens, UniProt P14416) (assay: Binding affinity for human Dopamine receptor D2 expressed in CHO K1 transfected cells using [3H]spiperone as radioligand).
Format: cell-based

Sequence of D(2) dopamine receptor (P14416 whole entry): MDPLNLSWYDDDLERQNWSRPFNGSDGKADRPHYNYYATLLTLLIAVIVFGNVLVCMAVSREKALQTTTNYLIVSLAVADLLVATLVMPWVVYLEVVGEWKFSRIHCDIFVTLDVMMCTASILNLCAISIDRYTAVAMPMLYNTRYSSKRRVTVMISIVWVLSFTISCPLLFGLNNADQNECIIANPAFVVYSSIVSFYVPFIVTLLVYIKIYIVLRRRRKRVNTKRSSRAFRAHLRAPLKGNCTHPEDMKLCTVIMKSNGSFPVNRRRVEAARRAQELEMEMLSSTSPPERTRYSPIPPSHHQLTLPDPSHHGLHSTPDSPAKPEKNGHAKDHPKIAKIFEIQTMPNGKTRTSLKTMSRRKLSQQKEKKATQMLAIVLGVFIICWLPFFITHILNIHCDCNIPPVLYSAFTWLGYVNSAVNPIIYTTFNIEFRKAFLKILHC

First: N#Cc1ccccc1N1CCN(CNC(=O)c2cccc(Cl)c2)CC1
Second: Cc1cccc(C(=O)NCN2CCN(c3ccccc3C#N)CC2)c1 [PD-168,077]
The Ki of the first is 4.2-fold lower: 897 nM for the first, 3740 nM for the second.

Going from `N#Cc1ccccc1N1CCN(CNC(=O)c2ccccc2)CC1` to `O=C(NCN1CCN(c2ccccc2Cl)CC1)c1ccccc1`, the Ki falls from 4180 nM to 1500 nM (2.8-fold).

Compared with `Cc1cccc(C(=O)NCN2CCN(c3ccccc3Cl)CC2)c1`, `O=C(NCN1CCN(c2ccccc2Cl)CC1)c1cccc(Cl)c1` is 1.8-fold higher in Ki: 1330 nM for the first, 2420 nM for the second.

Compared with `Cc1ccc(C(=O)NCN2CCN(c3ccccc3Cl)CC2)cc1`, `COc1ccccc1N1CCN(CNC(=O)c2ccc(C)cc2)CC1` is 1.6-fold lower in Ki: 466 nM for the first, 291 nM for the second. The second binds more tightly here.

`N#Cc1ccccc1N1CCN(CNC(=O)c2ccc(Cl)cc2)CC1` and `Cc1ccc(C(=O)NCN2CCN(c3ccccc3C#N)CC2)cc1` are within 1.5-fold of each other in Ki: 929 nM for the first, 1150 nM for the second.

`COc1ccccc1N1CCN(CNC(=O)c2ccc(Cl)cc2)CC1` and `COc1ccccc1N1CCN(CNC(=O)c2cccc(Cl)c2)CC1` are within 1.5-fold of each other in Ki: 349 nM for the first, 451 nM for the second.

Work on `COc1ccccc1N1CCN(CNC(=O)c2cccc(C)c2)CC1` yielded a Ki of 835 nM.

These molecules were tested against D(3) dopamine receptor (Homo sapiens, UniProt P35462) (assay: Binding affinity for human Dopamine receptor D3 expressed in CHO K1 transfected cells using [3H]spiperone as radioligand).
Format: cell-based

Sequence of D(3) dopamine receptor (P35462 whole entry): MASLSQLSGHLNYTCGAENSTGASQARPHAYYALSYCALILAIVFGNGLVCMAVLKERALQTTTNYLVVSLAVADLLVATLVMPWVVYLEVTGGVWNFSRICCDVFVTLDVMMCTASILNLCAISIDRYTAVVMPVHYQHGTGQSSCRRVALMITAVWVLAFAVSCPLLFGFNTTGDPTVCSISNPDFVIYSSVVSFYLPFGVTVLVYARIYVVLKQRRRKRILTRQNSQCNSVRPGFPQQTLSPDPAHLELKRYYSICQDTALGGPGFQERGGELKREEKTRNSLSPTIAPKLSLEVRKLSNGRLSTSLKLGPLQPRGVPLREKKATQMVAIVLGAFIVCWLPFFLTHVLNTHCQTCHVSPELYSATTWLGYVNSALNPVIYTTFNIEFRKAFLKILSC

`N#Cc1ccccc1N1CCN(CNC(=O)c2cccc(Cl)c2)CC1` and `Cc1cccc(C(=O)NCN2CCN(c3ccccc3C#N)CC2)c1` [PD-168,077] are within 1.5-fold of each other in Ki: 2270 nM for the first, 2810 nM for the second.

First: N#Cc1ccccc1N1CCN(CNC(=O)c2ccccc2)CC1
Second: O=C(NCN1CCN(c2ccccc2Cl)CC1)c1ccccc1
The Ki of the first is higher: > 3000 nM for the first, 177 nM for the second.

`Cc1cccc(C(=O)NCN2CCN(c3ccccc3Cl)CC2)c1` and `O=C(NCN1CCN(c2ccccc2Cl)CC1)c1cccc(Cl)c1` are within 1.5-fold of each other in Ki: 464 nM for the first, 364 nM for the second.

`Cc1ccc(C(=O)NCN2CCN(c3ccccc3Cl)CC2)cc1` and `O=C(NCN1CCN(c2ccccc2Cl)CC1)c1ccc(Cl)cc1` are within 1.5-fold of each other in Ki: 49 nM for the first, 66 nM for the second.

Going from `N#Cc1ccccc1N1CCN(CNC(=O)c2ccc(Cl)cc2)CC1` to `Cc1ccc(C(=O)NCN2CCN(c3ccccc3C#N)CC2)cc1`, the Ki falls from 600 nM to 377 nM (1.6-fold). The second binds more tightly here.

First: COc1ccccc1N1CCN(CNC(=O)c2ccc(C)cc2)CC1
Second: COc1ccccc1N1CCN(CNC(=O)c2ccc(Cl)cc2)CC1
The Ki of the first is 1.5-fold lower: 174 nM for the first, 268 nM for the second. The first binds more tightly here.

Going from `COc1ccccc1N1CCN(CNC(=O)c2cccc(Cl)c2)CC1` to `COc1ccccc1N1CCN(CNC(=O)c2cccc(C)c2)CC1`, the Ki rises from 1450 nM to 2480 nM (1.7-fold). The first binds more tightly here.

With `COc1ccccc1N1CCN(CNC(=O)c2ccccc2)CC1` the Ki was 2470 nM.

What follows are molecules tested against 5-hydroxytryptamine receptor 2A (Homo sapiens, UniProt P28223) (assay: Binding affinity at 5-hydroxytryptamine 2A receptor).
Sequence of 5-hydroxytryptamine receptor 2A (P28223 whole entry): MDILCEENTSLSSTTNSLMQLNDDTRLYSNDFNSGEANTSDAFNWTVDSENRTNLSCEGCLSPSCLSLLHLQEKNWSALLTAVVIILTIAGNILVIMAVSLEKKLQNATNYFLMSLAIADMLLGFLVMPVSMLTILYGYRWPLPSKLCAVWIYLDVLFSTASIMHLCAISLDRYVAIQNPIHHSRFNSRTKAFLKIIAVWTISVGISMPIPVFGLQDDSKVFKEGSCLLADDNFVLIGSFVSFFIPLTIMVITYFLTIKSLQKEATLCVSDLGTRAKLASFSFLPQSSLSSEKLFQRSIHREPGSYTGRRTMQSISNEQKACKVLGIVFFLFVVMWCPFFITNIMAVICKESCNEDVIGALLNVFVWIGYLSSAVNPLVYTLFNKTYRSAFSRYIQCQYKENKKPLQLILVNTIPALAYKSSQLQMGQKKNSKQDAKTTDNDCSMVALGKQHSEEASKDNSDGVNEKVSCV

Work on `Cc1cccc(C(=O)NCN2CCN(c3ccccc3C#N)CC2)c1` [PD-168,077] yielded a Ki of 4010 nM.
